# Experimental data: patent US20240327356A1, “PYRIMIDINE BASED RAS MODULATORS AND USES THEREOF” (QUANTA THERAPEUTICS, INC., priority 2021, published 2024)
# Assays:
# [1] = molecular target: KRAS^G12D-FMe.RAF1^RBDCRD complex (Homo sapiens, UniProt P01116, G12D); experiment: SHG assay: binding to bilayer-tethered KRAS G12D/RAF1 complex; conditions: GppNHp-loaded complex on PS bilayer; compound 0.027-40 μM, monitored over 60 min
# Description: Compounds suspected to carry intrinsic SHG activity were tested in the presence of an unlabeled KRAS^G12D-FMe.RAF1^RBDCRD complex to monitor binding. PS bilayer was prepared from PS-enriched small unilamellar vesicles (SUVs) purchased from Biodesy, Inc. The concentrated SUVs were diluted in TBS buffer containing 5 mM CaCl2 and incubated on a glass-bottom 384-well Biodesy Delta™ assay plate to allow bilayer formation. Equimolar amounts of GppNHp-loaded KRAS^G12D-FMe and RAF1^RBDCRD were mixed and incubated together on PS bilayer overnight at 4° C. The following day, untethered protein was removed by washing with assay buffer (20 mM Hepes, pH 7.4, […], 1 mM TCEP, 5 μM GppNHp). The SHG signal produced by bilayer-tethered complex was ready using the Biodesy Delta™ platform where each well was pulsed with an 800 nm laser and the resulting second harmonic signal intensity at 400 nm was collected. Compounds were diluted into the same assay buffer and applied to the complex at a final concentration range spanning 0.027 μM-40 μM and the SHG intensity of each well was monitored at 5 minute intervals over a 60 minute time period.
# [2] = test system: Phospho-ERK (Thr202/Tyr204) in MiaPaCa-2 cells; experiment: pERK inhibition in MiaPaca-2 cell line (HTRF); type: cell-based; conditions: Homo sapiens, MIA PaCa-2, 1 hour incubation with compound
# Description: MiaPaCa-2 cells (ATCC CRL-1420) were cultured in high glucose DMEM (Gibco 11965092) containing 10% fetal bovine serum (Gibco 1993708) and 1× Penicillin/Streptomycin, at 37° C. in a humid atmosphere of 5% CO2 in the air. Cells were plated in tissue-culture treated 96-well plates at a density of 10,000 cells/well and allowed to attach for 16 hours. The medium was then removed, and diluted compounds were added in a final concentration of 0.5% DMSO. After 1 hour of incubation, cells were lysed by the lysis buffer supplied with the Phospho-ERK (Thr202/Tyr204) cellular HTRF kit (Cisbio 64ERKPEH) and transferred to a 384-well low-volume white plate (PerkinElmer 6008280). The cell lysates were treated with the detection reagents supplied with the HTRF kit for 4 hours at ambient temperature in darkness. Two fluorescence intensities at the wavelengths (665 and 620 nm) were measured by the Envision plate reader (Perkin Elmer), and the data were processed and fitted to a 4-parameter logistic model for IC50 calculation (GraphPad Prism 9).
EC50 [1] [µM],IC50 [2] [µM],Structure (SMILES)
1 to 10,1 to 10,"NCC1CCN(c2nc(-c3ccc(C(F)(F)F)cc3F)ncc2CNC(=O)Nc2ccccc2)C1 (stereo not drawn) [Compound 19, 1-[[4-[3-(aminomethyl)pyrrolidin-1-yl]-2-[2-fluoro-4-(trifluoromethyl)phenyl]pyrimidin-5-yl]methyl]-3-phenyl-urea]"
1 to 10,1 to 10,NCC1CCN(c2nc(-c3ccc(Cl)cc3NC(=O)C3(F)CC3)ncc2C2=CCNC2)C1 (stereo not drawn) [Compound 23]
1 to 10,10 to 50,NCC1CCN(c2nc(-c3ccc(C(F)(F)F)cc3F)ncc2CNC(=O)C2(CN)CC2)C1 (stereo not drawn) [Compound 25]
1 to 10,1 to 10,N#CC1(C(=O)N2CC=C(c3cnc(-c4ccc(Cl)c(C(F)(F)F)c4)nc3N3CCC(CN)C3)C2)CC1 (stereo not drawn) [Compound 29]
10 to 50,1 to 10,N#Cc1cc(-c2ncc(CNC(=O)C3(F)CC3)c(N3CCC(CN)C3)n2)ccc1Cl (stereo not drawn) [Compound 35]
1 to 10,1 to 10,N#CC1(C(=O)N2CC=C(c3cnc(-c4ccc(Cl)c(C(F)(F)F)c4)nc3OCCN)C2)CC1 [Compound 36]
10 to 50,1 to 10,N#CC1(C(=O)NCc2cnc(-c3ccc(Cl)c(C(F)(F)F)c3)nc2N2C[C@@H](N)[C@H](O)C2)CC1 [Compound 37]
10 to 50,1 to 10,N#CC1(C(=O)NCc2cnc(-c3ccc(Cl)c(C(F)(F)F)c3)nc2OC2CCNC2)CC1 (stereo not drawn) [Compound 38]
1 to 10,1 to 10,N#CC1(C(=O)NCc2cnc(-c3ccc(Cl)c(C(F)(F)F)c3)nc2OC2CNC2)CC1 [Compound 39]
10 to 50,10 to 50,N[C@@H]1CN(c2nc(-c3ccc(Cl)cc3NC(=O)C3CC3)ncc2C2=CCNC2)C[C@H]1O [Compound 43]
1 to 10,1 to 10,"N#Cc1cc(-c2ncc(CNc3ccccc3)c(N3CCC(CN)C3)n2)ccc1C(F)(F)F (stereo not drawn) [Compound 45, 5-[4-[3-(aminomethyl)pyrrolidin-1-yl]-5-(anilinomethyl)pyrimidin-2-yl]-2-(trifluoromethyl)benzonitrile]"
1 to 10,1 to 10,N#CC1(C(=O)NCc2cnc(-c3ccc(Cl)c(C(F)(F)F)c3)nc2N2CCC(N)CC2)CC1 [Compound 48]
1 to 10,1 to 10,N#CC1(C(=O)NCc2cnc(-c3ccc(Cl)c(C(F)(F)F)c3)nc2N2CCOC(CN)C2)CC1 (stereo not drawn) [Compound 51]
10 to 50,1 to 10,N#CC1(C(=O)NCc2cnc(-c3ccc(Cl)c(C(F)(F)F)c3)nc2N2CCC[C@H]2CN)CC1 [Compound 55]
1 to 10,1 to 10,COC(=O)NCc1cnc(-c2ccc(C)c(Cl)c2)nc1N1CCC(CN)C1 (stereo not drawn) [Compound 60]
1 to 10,0.1 to 1,Cc1ccc(-c2ncc(CNC(=O)C3(C#N)CC3)c(N3CCC(F)(CN)C3)n2)cc1Cl (stereo not drawn) [Compound 63]
1 to 10,1 to 10,CN1CCN(c2nc(-c3ccc(Cl)c(C(F)(F)F)c3)ncc2CNC(=O)C2(C#N)CC2)CC1 [Compound 71]
1 to 10,1 to 10,C=C(F)C(=O)NCc1cnc(-c2ccc(C)c(Cl)c2)nc1N1CCC(CN)C1 (stereo not drawn) [Compound 76]
1 to 10,1 to 10,Cc1ccc(-c2ncc(CNC(=O)C3(C#N)CC3)c(C3=CCC(N)CC3)n2)cc1Cl (stereo not drawn) [Compound 77]
10 to 50,1 to 10,Cc1ccc(-c2ncc(CNC(=O)C3(C)COC3)c(N3CCC(CN)C3)n2)cc1Cl (stereo not drawn) [Compound 80]
10 to 50,1 to 10,Cc1ccc(-c2ncc(CNC(=O)C3(N)CC3)c(N3CCC(CN)C3)n2)cc1Cl (stereo not drawn) [Compound 81]
1 to 10,1 to 10,C=C(C)C(=O)NCc1cnc(-c2ccc(C)c(Cl)c2)nc1N1CCC(CN)C1 (stereo not drawn) [Compound 88]
10 to 50,1 to 10,Cc1ccc(-c2ncc(CNC(=O)C3(F)CC3)c(OC3CCN(C)C3)n2)cc1Cl (stereo not drawn) [Compound 89]

# Continued, compound first:
Structure (SMILES),EC50 [1] [µM],IC50 [2] [µM]
NCC1CCN(c2nc(-c3ccc(Cl)c(C(F)(F)F)c3)ncc2OC2CCOC2)C1 (stereo not drawn) [Compound 12],1 to 10,1 to 10
NC[C@@H]1CCN(c2nc(-c3ccc(Cl)c(C(F)(F)F)c3)ncc2C2CC2)C1 [Compound 14],1 to 10,10 to 50
"NCC1CCN(c2nc(-c3ccc(C(F)(F)F)cc3F)ncc2C2CCNC2)C1 (stereo not drawn) [Compound 17, [1-[2-[2-fluoro-4-(trifluoromethyl)phenyl]-5-pyrrolidin-3-yl-pyrimidin-4-yl]pyrrolidin-3-yl]methanamine]",1 to 10,1 to 10
N#CC1(C(=O)NCc2cnc(-c3ccc(C(F)(F)F)cc3F)nc2N2CCC(CN)C2)CC1 (stereo not drawn) [Compound 28],10 to 50,1 to 10
N#Cc1cc(-c2ncc(C3=CCN(C(=O)C4(C#N)CC4)C3)c(N3CCC(CN)C3)n2)ccc1Cl (stereo not drawn) [Compound 30],10 to 50,1 to 10
NC[C@@H]1CCCN1c1nc(-c2ccc(Cl)c(C(F)(F)F)c2)ncc1C1=CCNC1 [Compound 31],< 0.1,1 to 10
Cc1ccc(-c2ncc(C3=CCNC3)c(N3CCC(CN)C3)n2)cc1C(F)(F)F (stereo not drawn) [Compound 32],0.1 to 1,1 to 10
NC[C@H]1CCCN1c1nc(-c2ccc(Cl)c(C(F)(F)F)c2)ncc1C1=CCNC1 [Compound 33],1 to 10,1 to 10
"NCCOc1nc(-c2ccc(Cl)c(C(F)(F)F)c2)ncc1C1=CCNC1 [Compound 34, 2-[2-[4-chloro-3-(trifluoromethyl)phenyl]-5-(2,5-dihydro-1H-pyrrol-3-yl)pyrimidin-4-yl]oxyethanamine]",0.1 to 1,1 to 10
N[C@@H]1CN(c2nc(-c3ccc(Cl)c(C(F)(F)F)c3)ncc2C2=CCNC2)C[C@H]1O [Compound 40],0.1 to 1,1 to 10
N[C@@H]1CN(c2nc(-c3ccc(Cl)cc3NC(=O)C3(F)CC3)ncc2C2=CCNC2)C[C@H]1O [Compound 44],1 to 10,1 to 10
N#CC1(C(=O)NCc2cnc(-c3ccc(Cl)c(C(F)(F)F)c3)nc2OCCN)CC1 [Compound 46],1 to 10,1 to 10
N#CC1(C(=O)NCc2cnc(-c3ccc(Cl)c(C(F)(F)F)c3)nc2N2CCC(F)(CN)C2)CC1 (stereo not drawn) [Compound 47],1 to 10,1 to 10
"NCC1CCN(c2nc(-c3ccc(Cl)c(C(F)(F)F)c3)ncc2CNCCO)C1 (stereo not drawn) [Compound 49, 2-[[4-[3-(aminomethyl)pyrrolidin-1-yl]-2-[4-chloro-3-(trifluoromethyl)phenyl]pyrimidin-5-yl]methylamino]ethanol]",1 to 10,1 to 10
N#CC1(C(=O)NCc2cnc(-c3ccc(Cl)c(C(F)(F)F)c3)nc2OC2CC(N)C2)CC1 (stereo not drawn) [Compound 50],1 to 10,1 to 10
N#CC1(C(=O)NCc2cnc(-c3ccc(Cl)c(C(F)(F)F)c3)nc2N2CCNCC2)CC1 [Compound 54],1 to 10,1 to 10
NCC1CCN(c2nc(-c3ccc(Cl)c(C(F)(F)F)c3)ncc2[N+](=O)[O-])C1 (stereo not drawn) [Compound 56],10 to 50,10 to 50
"N#CC1(C(=O)NCc2cnc(-c3ccc(Cl)c(C(F)(F)F)c3)nc2C2=CCC(N)CC2)CC1 (stereo not drawn) [Compound 58, N-[[4-(4-aminocyclohexen-1-yl)-2-[4-chloro-3-(trifluoromethyl)phenyl]pyrimidin-5-yl]methyl]-1-cyano-cyclopropanecarboxamide]",1 to 10,1 to 10
N[C@H]1CN(c2nc(-c3ccc(Cl)c(C(F)(F)F)c3)ncc2C2=CCNC2)C[C@@H]1O [Compound 61],1 to 10,1 to 10
Cc1ccc(-c2ncc(CNC(=O)C3(C#N)CC3)c(N3CC[C@H](N)C3)n2)cc1Cl [Compound 65],1 to 10,0.1 to 1
N#CC1(C(=O)NCc2cnc(-c3ccc(Cl)c(C(F)(F)F)c3)nc2N2CCC[C@@H]2CN)CC1 [Compound 66],1 to 10,1 to 10
Cc1ccc(-c2ncc(CNC(=O)C3(C#N)CC3)c(N3CCC[C@H]3CN)n2)cc1Cl [Compound 68],10 to 50,1 to 10
N#CC1(C(=O)NCc2cnc(-c3ccc(Cl)c(C(F)(F)F)c3)nc2OCCCN)CC1 [Compound 74],1 to 10,1 to 10
N#CC1(C(=O)NCc2cnc(-c3ccc(C(F)(F)F)c(Cl)c3)nc2N2CCC(CN)C2)CC1 (stereo not drawn) [Compound 75],1 to 10,1 to 10
Cc1ccc(-c2ncc(CNS(=O)(=O)C3CC3)c(N3CCC(CN)C3)n2)cc1Cl (stereo not drawn) [Compound 82],1 to 10,1 to 10
